According to PubChem BioAssay (NCI):
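Grown in 96-well plates, cells were treated for 48 hours with each compound at five concentrations. Insufficient inhibition: endpoint recorded as highest concentration tested. GI50 is the concentration that inhibits growth by half. TGI: total growth inhibition.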

Columns and labels:
Assay in all cases: growth of human tumour cells (NCI), 48 h
SR leukemia = system: SR leukemia
OVCAR-3 ovarian = system: OVCAR-3 ovarian
BT-549 breast = system: BT-549 breast
NCI-H460 lung = system: NCI-H460 lung
M14 melanoma = system: M14 melanoma
SNB-75 CNS = system: SNB-75 CNS
TK-10 renal = system: TK-10 renal
MALME-3M melanoma = system: MALME-3M melanoma
ACHN renal = system: ACHN renal
NCI-H23 lung = system: NCI-H23 lung
SF-539 CNS = system: SF-539 CNS
MDA-MB-231 breast = system: MDA-MB-231 breast
RXF 393 renal = system: RXF 393 renal
OVCAR-8 ovarian = system: OVCAR-8 ovarian
UO-31 renal = system: UO-31 renal
SNB-19 CNS = system: SNB-19 CNS
SK-MEL-28 melanoma = system: SK-MEL-28 melanoma
HOP-62 NSCLC = system: HOP-62 NSCLC
OVCAR-5 ovarian = system: OVCAR-5 ovarian
NCI-H226 lung = system: NCI-H226 lung
HOP-92 NSCLC = system: HOP-92 NSCLC
SK-MEL-5 melanoma = system: SK-MEL-5 melanoma
A498 renal = system: A498 renal
HCC-2998 colon = system: HCC-2998 colon
MCF7 breast = system: MCF7 breast
RPMI-8226 leukemia = system: RPMI-8226 leukemia
IGROV1 ovarian = system: IGROV1 ovarian
786-0 renal = system: 786-0 renal
COLO 205 colon = system: COLO 205 colon
KM12 colon = system: KM12 colon
HCT-116 colon = system: HCT-116 colon
SN12C renal = system: SN12C renal
MDA-MB-435 = system: MDA-MB-435
MOLT-4 leukemia = system: MOLT-4 leukemia
T-47D breast = system: T-47D breast
U251 CNS = system: U251 CNS
DU-145 prostate = system: DU-145 prostate
CCRF-CEM leukemia = system: CCRF-CEM leukemia
SW-620 colon = system: SW-620 colon
HL-60(TB) leukemia = system: HL-60(TB) leukemia
SK-OV-3 ovarian = system: SK-OV-3 ovarian
UACC-62 melanoma = system: UACC-62 melanoma
CAKI-1 renal = system: CAKI-1 renal
HT29 colon = system: HT29 colon
K-562 leukemia = system: K-562 leukemia
OVCAR-4 ovarian = system: OVCAR-4 ovarian
NCI-H522 lung = system: NCI-H522 lung
A549 NSCLC = system: A549 NSCLC
HS 578T breast = system: HS 578T breast
PC-3 prostate = system: PC-3 prostate
SF-268 CNS = system: SF-268 CNS
LOX IMVI melanoma = system: LOX IMVI melanoma
UACC-257 melanoma = system: UACC-257 melanoma
SK-MEL-2 melanoma = system: SK-MEL-2 melanoma
HCT-15 colon = system: HCT-15 colon
NCI/ADR-RES ovarian = system: NCI/ADR-RES ovarian

`COc1ccc(C2=N[C@@H](Cc3ccccc3)C(=O)Nc3ccsc32)cc1` was tested, and the GI50 (SR leukemia) was 2.63 µM, the TGI (SR leukemia) was 11.7 µM and the GI50 (OVCAR-3 ovarian) was 3.56 µM. It also gave a TGI (OVCAR-3 ovarian) of 9.88 µM, a GI50 (BT-549 breast) of 10.6 µM and a TGI (BT-549 breast) of 28.5 µM. For the same compound, the GI50 (NCI-H460 lung) was 3.53 µM, the TGI (NCI-H460 lung) was 14.4 µM and the GI50 (M14 melanoma) was 3.66 µM. For the same compound, the TGI (M14 melanoma) was 12.6 µM, the GI50 (SNB-75 CNS) was 2.05 µM and the TGI (SNB-75 CNS) was 7.08 µM. The GI50 (TK-10 renal) was 13 µM, the TGI (TK-10 renal) was 56.6 µM and the GI50 (MALME-3M melanoma) was 10.4 µM. For the same compound, the TGI (MALME-3M melanoma) was 25.9 µM, the GI50 (ACHN renal) was 6.27 µM and the TGI (ACHN renal) was 39.1 µM. The GI50 (NCI-H23 lung) was 11.1 µM, the TGI (NCI-H23 lung) was 39.6 µM and the GI50 (SF-539 CNS) was 2.75 µM. It also gave a TGI (SF-539 CNS) of 9.84 µM, a GI50 (MDA-MB-231 breast) of 11.4 µM and a TGI (MDA-MB-231 breast) of 29.1 µM. The GI50 (RXF 393 renal) was 2.75 µM, the TGI (RXF 393 renal) was 9.6 µM and the GI50 (OVCAR-8 ovarian) was 6.31 µM. It also gave a TGI (OVCAR-8 ovarian) of 57.6 µM, a GI50 (UO-31 renal) of 8.7 µM and a TGI (UO-31 renal) of 34.6 µM. It also gave a GI50 (SNB-19 CNS) of 9.93 µM, a TGI (SNB-19 CNS) of 58.3 µM and a GI50 (SK-MEL-28 melanoma) of 9.66 µM. The TGI (SK-MEL-28 melanoma) was 24.5 µM, the GI50 (HOP-62 NSCLC) was 5.81 µM and the TGI (HOP-62 NSCLC) was 19.1 µM. The GI50 (OVCAR-5 ovarian) was 11.5 µM, the TGI (OVCAR-5 ovarian) was 36.4 µM and the GI50 (NCI-H226 lung) was 11.2 µM. It also gave a TGI (NCI-H226 lung) of 42 µM, a GI50 (HOP-92 NSCLC) of 2.32 µM and a TGI (HOP-92 NSCLC) of 16.7 µM. The GI50 (SK-MEL-5 melanoma) was 3.26 µM, the TGI (SK-MEL-5 melanoma) was 12.1 µM and the GI50 (A498 renal) was 2.32 µM. The TGI (A498 renal) was 9.04 µM, the GI50 (HCC-2998 colon) was 12 µM and the TGI (HCC-2998 colon) was 25.8 µM. It also gave a GI50 (MCF7 breast) of 3.73 µM, a TGI (MCF7 breast) of 25.4 µM and a GI50 (RPMI-8226 leukemia) of 3.29 µM. For the same compound, the TGI (RPMI-8226 leukemia) was 18.8 µM, the GI50 (IGROV1 ovarian) was 12.8 µM and the TGI (IGROV1 ovarian) was 41 µM. The GI50 (786-0 renal) was 10.7 µM, the TGI (786-0 renal) was 36.6 µM and the GI50 (COLO 205 colon) was 2.49 µM. For the same compound, the TGI (COLO 205 colon) was 5.03 µM, the GI50 (KM12 colon) was 5.62 µM and the TGI (KM12 colon) was 20.9 µM. For the same compound, the GI50 (HCT-116 colon) was 5.38 µM, the TGI (HCT-116 colon) was 17.7 µM and the GI50 (SN12C renal) was 8.28 µM. It also gave a TGI (SN12C renal) of 25.7 µM, a GI50 (MDA-MB-435) of 1.52 µM and a TGI (MDA-MB-435) of 4 µM. The GI50 (MOLT-4 leukemia) was 3.98 µM, the TGI (MOLT-4 leukemia) was 19.3 µM and the GI50 (T-47D breast) was 5.64 µM. The TGI (T-47D breast) was 48.4 µM, the GI50 (U251 CNS) was 4.51 µM and the TGI (U251 CNS) was 20.5 µM. It also gave a GI50 (DU-145 prostate) of 4.65 µM, a TGI (DU-145 prostate) of 21.9 µM and a GI50 (CCRF-CEM leukemia) of 3.46 µM. It also gave a TGI (CCRF-CEM leukemia) of 28.1 µM, a GI50 (SW-620 colon) of 4.38 µM and a TGI (SW-620 colon) of 27.9 µM. The GI50 (HL-60(TB) leukemia) was 3.91 µM, the TGI (HL-60(TB) leukemia) was 19.3 µM and the GI50 (SK-OV-3 ovarian) was 4.56 µM. For the same compound, the TGI (SK-OV-3 ovarian) was 17.3 µM, the GI50 (UACC-62 melanoma) was 4.47 µM and the TGI (UACC-62 melanoma) was 20.2 µM. The GI50 (CAKI-1 renal) was 3.87 µM, the TGI (CAKI-1 renal) was 33.8 µM and the GI50 (HT29 colon) was 4.04 µM. It also gave a TGI (HT29 colon) of 13.4 µM, a GI50 (K-562 leukemia) of 3.75 µM and a TGI (K-562 leukemia) of 27 µM. The GI50 (OVCAR-4 ovarian) was 11.2 µM, the TGI (OVCAR-4 ovarian) was 83 µM and the GI50 (NCI-H522 lung) was 2.71 µM. It also gave a TGI (NCI-H522 lung) of 8.98 µM, a GI50 (A549 NSCLC) of 4.69 µM and a TGI (A549 NSCLC) of 29.5 µM. It also gave a GI50 (HS 578T breast) of 3.24 µM, a TGI (HS 578T breast) of 28.8 µM and a GI50 (PC-3 prostate) of 3.78 µM. For the same compound, the TGI (PC-3 prostate) was 25.2 µM, the GI50 (SF-268 CNS) was 10.4 µM and the TGI (SF-268 CNS) was 43.8 µM. For the same compound, the GI50 (LOX IMVI melanoma) was 6.48 µM, the TGI (LOX IMVI melanoma) was 22 µM and the GI50 (UACC-257 melanoma) was 11.6 µM. For the same compound, the TGI (UACC-257 melanoma) was 36.7 µM, the GI50 (SK-MEL-2 melanoma) was 11.7 µM and the TGI (SK-MEL-2 melanoma) was 30 µM. The GI50 (HCT-15 colon) was 3.9 µM, the TGI (HCT-15 colon) was 20.4 µM and the GI50 (NCI/ADR-RES ovarian) was 3.84 µM. For the same compound, the TGI (NCI/ADR-RES ovarian) was 33 µM.
